Patent US8771983B2, “Method and kit for expressing protein under regulation of the expression from repeated sequence formed by gene amplification, and transformant” (National University of Corporation Hiroshima University, priority 2004, dated 2014)

How the values were obtained:
[1] = tested on: expression of d2EGFP in human colon cancer cell COLO 320DM cells; assay: Level of expression of d2EGFP by cell sorter after selection with stepwise increasing Blasticidin concentrations (Example 3); format: cell-based; conditions: 1 μg/ml Doxycycline
Experimental: (§1) Fluorescence intensity of these cells were measured by using a cell sorter. The measurement was carried out by sorting 20,000 cells by setting living cells at a gate. The cell sorter used was made by Becton Dickinson, and operated under conditions as described in the manual attached thereto.
(§2) In this method for detecting the fluorescence intensity, detection limit was 1, and all fluorescence intensities of 1 or less would be detected as 1. In view of this, a product of a ratio (cell %) of cells of fluorescence intensities of 2 or more in all living cells (10,000 cells) and an average of the fluorescence intensities of the cells having fluorescence intensities of 2 or more was calculated out for each experimental plot. This product is referred to as “accumulated fluorescence intensity” hereinafter and in later Examples and shown in boxed letter in the figures.
A plasmid (pSFVdhfr/d2EGFP) was transfected into human colon cancer cell COLO 320DM cells by lipofection. The plasmid (pSFVdhfr/d2EGFP) was a plasmid having (a) IR and MAR derived from human DHFR gene locus, (b) Blasticidin tolerance gene, and (c) d2EGFP gene that was under control of TRE-promoter (Tetracycline inducing promoter). The transformed cells were selected with 5 μg/ml of Blasticidin (Funakoshi Corp.) thereby obtaining many transformed clones. After the clones were mixed, the culturing was continued. […] Cells select with the respective Blasticidin concentrations were treated with 1 μg/ml of Doxycycline (Clontech Laboratories Inc.) added to the media so as to activate TRE-promoter and thereby inducing expression of d2EGFP (whose half-life is much shorter than general EGFP.

[2] = tested on: expression of d2EGFP in human colon cancer COLO 320DM cells; assay: Change over time of d2EGFP expression after induction with Doxycycline in cells cotransfected with pSFVdhfr/d2EGFP and pTet-ON plasmid (Example 8); format: cell-based; conditions: polyclonal population
Experimental: as §1, §2
An equimolar mixture of a plasmid (pSFVdhfr/d2EGFP) and pTet-ON plasmid (Clontech Laboratories Inc.) was simultaneously transfected into human colon cancer COLO 320DM cells. The plasmid (pSFVdhfr/d2EGFP) was a plasmid having (a) IR and MAR derived from human DHFR gene locus, (b) Blasticidin tolerance gene, and (c) d2EGFP gene that was under control of TRE-promoter (Tetracycline inducing promoter). Meanwhile, the pTet-ON plasmid was a plasmid having Tet-ON gene encoding the transcription activating factor (Tet-ON protein) of TRE-promoter. The cells were selected with 5 μg/ml of Blasticidin thereby obtaining a polyclonal population of transformed cells. TRE-promoter was activated by adding 1 μg/ml of Doxycycline (Clontech Laboratories Inc.) in the medium of a cell culturing solution of the polyclonal population, thereby inducing the expression of d2EGFP.
Next, after the expression of d2EGFP was induced by Doxycycline, the level of the expression of d2EGFP was analyzed by using a cell sorter so as to find a change in the level of the expression of d2EGFP over time. […] In FIG. 16, the value in parenthesis is an average of fluorescence intensities (i.e., average fluorescence intensity), and boxed value is an accumulated fluorescence intensity.
FIG. 17 illustrates a graph plotting the averages (i.e., average fluorescence intensities: indicated by filled circles in FIG. 17) and living cell ratio (a ratio of living cells over total cell number: indicated by open circles) of the level of the expression of d2EGFP against time. […] The level was maintained high even after two weeks lapsed (labeled as “2wk” in FIG. 17).

[3] = tested on: expression of d2EGFP in Tet-ON cells (COLO 320DM) transfected with pSFVdhfr/d2EGFP; assay: Level of expression of d2EGFP by cell sorter in HSR and DM clones of Tet-ON cells with 5-aza (Example 7); format: cell-based, human; conditions: polyclonal population of Tet-ON cells with pSFVdhfr/d2EGFP; 5 μg/ml of Doxycycline
Experimental: as §1, §2
By lipofection, the pTet-ON plasmid (Clontech Laboratories Inc.) having Tet-ON gene encoding a transcription activating factor (Tet-ON protein) for promoting TRE-promoter was transfected into human colon cancer COLO 320DM. Transformed cells (hereinafter referred to as “Tet-ON cells”) which stably expressed Tet-ON protein, were selected with Hygromycin.
Next, the pSFVdhfr/d2EGFP plasmid was transfected into the Tet-ON cells by lipofection. The cells thus obtained were selected with 5 μg/ml of Blasticidin for approximately 3 weeks, thereby obtaining a polyclonal population of the stable transformed cells.
The expression of d2EGFP was induced in the polyclonal population by activating TRE-promoter by adding 5 μg/ml of Doxycycline (Clontech Laboratories Inc.) in the medium. FIG. 9 illustrates a result of analysis of the level of the expression of d2EGFP in this case by using a cell sorter. In FIG. 9, the value in parenthesis is an average of fluorescence intensities (i.e., average fluorescence intensity), and boxed value is an accumulated fluorescence intensity. Based on the result of FIG. 9, it was confirmed that the polyclonal population was a population for expressing d2EGFP (average fluorescence intensity: 6.25, accumulated fluorescence intensity: 536).
From the polyclonal population, given 30 clones were obtained by a limiting dilution method that was carried out by inoculating a clone to 6 well plates with such a low cell concentration of 30 cells/ml, and incubating the plates for 10 days to 2 weeks thereby obtaining colonies thereon.
From among the clones, 4 clones having high levels of expression of d2EGFP (Clone 4, Clone 5, Clone 6, and Clone 9) were selected by fluorescence microscopic observation. Mitotic chromosome samples of the 4 clones were prepared. By FISH method, detection for a base sequence derived from the transfected pSFVdhfr/d2EGFP plasmid was carried out. The preparation of mitotic chromosome samples and the FISH method were carried out as described in Shimizu, N., Kanda, T., and Wahl, G. M. Selective capture of acentric fragments by micronuclei provides a rapid method of purifying extrachromosomally amplified DNA. Nature Genet., 12: 65-71, 1996.
For 4 clones, induction with Doxycycline (Clontech Laboratories Inc.; 1 μg/ml) was carried out and 5-aza (0 μM, 1 μM or 3 μM) was added in the medium. After 1 week culturing, the level of expression of d2EGFP in each clone was analyzed by using a cell sorter.

[4] = tested on: expression of d2EGFP in human colon cancer cells COLO 320DM cells; assay: Level of expression of d2EGFP after treatment of cells with 5-aza-2′-deoxycytidine and/or Trichostatin A (Example 6); format: cell-based
Experimental: as §1, §2
A mixture of a plasmid (pSFVdhfr/d2EGFP) and the plasmid DNA having the Aves-derived HS4 insulator sequence was transfected to human colon cancer cells COLO 320DM cells by lipofection. The plasmid (pSFVdhfr/d2EGFP) was a plasmid having (a) IR and MAR derived from human DHFR gene locus, (b) Blasticidin tolerance gene, and (c) d2EGFP gene that was under control of TRE-promoter (Tetracycline inducing promoter). The plasmid DNA having the Aves-derived HS4 insulator sequence was identical with the one described in Example 2. From 2 days later since the gene transfection, the cells were selected with 5 μg/ml of Blasticidin (Funakoshi Corp.). After 3 to 4 weeks, many colonies of transformed cells were obtained.
Into a culture solution of the transformed cells, of 1 μM or 3 μM of 5-aza-2′ deoxycytidine (hereinafter referred to as “5-aza” where appropriate; Sigma) was added. Thereby, the cells were treated with 5-aza for 3 days. For comparison purposes, 20 nM of Trichostatin A (hereinafter referred to as “TSA” where appropriate; histone deacetylation inhibitor, Sigma), which is known as a material for increasing gene expression from the repeated sequence, was added to some culture solutions of the transformed cells and analyzed.

[5] = pSFVdhfr/d2EGFP cells selected with 5 μg/ml of Blasticidin
[6] = pSFVdhfr/d2EGFP cells selected with 40 μg/ml of Blasticidin
[7] = pSFVdhfr/d2EGFP cells selected with 160 μg/ml of Blasticidin
[8] = pSFVdhfr/d2EGFP cells selected with 320 μg/ml of Blasticidin
[9] = fifteen hours after the addition of Doxycycline (1 μg/ml)
[10] = forty eight hours (2 days) after the addition of Doxycycline (1 μg/ml)
[11] = one hour after the addition of Doxycycline (1 μg/ml)
[12] = one hundred twenty hours (5 days) after the addition of Doxycycline (1 μg/ml)
[13] = six hours after the addition of Doxycycline (1 μg/ml)
[14] = three hours after the addition of Doxycycline (1 μg/ml)
[15] = twenty four hours after the addition of Doxycycline (1 μg/ml)
[16] = two weeks after the addition of Doxycycline (1 μg/ml)

## CN(CC[C@H](N)CC(=O)N[C@H]1C=C[C@H](n2ccc(N)nc2=O)O[C@@H]1C(=O)O)C(=N)N [Blasticidin]
[1]; pSFVdhfr/d2EGFP cells selected with 10 ng/ml of Blasticidin
  average fluorescence intensity: 3.77
[1]; [5]
  accumulated fluorescence intensity: 222
  average fluorescence intensity: 2.94
[1]; [6]
  accumulated fluorescence intensity: 640
  average fluorescence intensity: 6.67
[1]; [7]
  accumulated fluorescence intensity: 929
  average fluorescence intensity: 9.47
[1]; [8]
  accumulated fluorescence intensity: 1850
  average fluorescence intensity: 18.55

## C[C@H]1c2cccc(O)c2C(=O)C2=C(O)[C@]3(O)C(=O)C(C(N)=O)=C(O)[C@@H](N(C)C)[C@@H]3[C@@H](O)[C@@H]21 [Doxycycline]
[2]; [9]
  accumulated fluorescence intensity: 841
  average fluorescence intensity: 9.24
[2]; [10]
  accumulated fluorescence intensity: 5320
  average fluorescence intensity: 53.97
[2]; [11]
  accumulated fluorescence intensity: 216
  average fluorescence intensity: 2.99
[2]; [12]
  accumulated fluorescence intensity: 3880
  average fluorescence intensity: 39.56
[2]; expression of d2EGFP induced by Doxycycline, up to two weeks
  survival ratio of the cells (living cell ratio): no decrease in the survival ratio
[2]; [13]
  accumulated fluorescence intensity: 341
  average fluorescence intensity: 4.22
[2]; [14]
  accumulated fluorescence intensity: 293
  average fluorescence intensity: 3.72
[2]; [15]
  accumulated fluorescence intensity: 2800
  average fluorescence intensity: 28.77
[2]; [16]
  accumulated fluorescence intensity: 3500
  average fluorescence intensity: 35.32
[3]
  accumulated fluorescence intensity: 536
  average fluorescence intensity: 6.25

## CC(/C=C/C(=O)NO)=C\[C@@H](C)C(=O)c1ccc(N(C)C)cc1 [TSA, Trichostatin A]
[4]; 20 nM of TSA
  accumulated fluorescence intensity: 228
  average fluorescence intensity: 3.02
[4]; 20 nM of TSA versus cells before treatment
  effect on the expression of the target protein: cannot increase the expression of the target protein
